# Reference: publication PMC11602115 (Journal of Medicinal Chemistry, 2017)
# How the values were obtained:
# [1] = Stability in rat microsome preparations; format: in vitro ADME; conditions: incubation at 37 °C, rat microsomes; read-out: rat MS, T1/2
# From the text: Table 1 Screening Data for Selected Analogues ^a | column: human and rat MS, T1/2 (min) ^g
# [2] = target: hERG channel (Homo sapiens, UniProt Q12809); assay: hERG patch clamp assay; format: cell-based; conditions: read-out: IC50 hERG channel functional activity
# [3] = target: monkey IP; assay: Radioligand binding, monkey IP ([3H]-iloprost)
# Experimental: (§1) CHO-K1 cells expressing recombinant IP receptors were harvested, washed with ice-cold phosphate buffered saline, pH 7.4 (PBS), and then centrifuged at 48 000g for 20 min at 4 °C. The resulting cell pellet was then resuspended in ice-cold PBS containing 20 mM HEPES, pH 7.4, and 0.1 mM EDTA, homogenized on ice using a Brinkman Polytron, and centrifuged (48 000g for 20 min at 4 °C). This resuspension and centrifugation process was repeated one further time. Crude membrane pellets were stored at −80 °C until used for radioligand binding assays.
# (§2) Assay incubations were terminated by rapid filtration through PerkinElmer GF/C filtration plates pretreated with 0.3% PEI, under vacuum pressure using a 96-well Packard filtration apparatus, followed by multiple washes with ice-cold wash buffer (PBS containing 20 mM HEPES and 0.1 mM EDTA, pH 7.4). Plates were then dried at 45 °C for a minimum of 2 h. Finally, 25 μL of BetaScint scintillation cocktail was added to each well and plates were counted in a Packard TopCount scintillation counter. In each competition study, test compounds were dosed at 10 concentrations with triplicate determinations at each test concentration.
# [4] = target: CYP 3A4 (Homo sapiens, UniProt P08684); assay: Cytochrome P450 inhibition, CYP3A4; format: in vitro ADME
# [5] = system: MCT-induced PAH; assay: Rat monocrotaline (MCT) model of PAH, preventative oral dosing; format: in vivo, male Sprague-Dawley rats; conditions: for inhibition of the MCT-induced increase in RV/(LV + S): oral, twice daily for 21 days, preventative mode
# Experimental: Following anesthesia by intraperitoneal injection of 30 mg/kg pentobarbital, rats were given a subcutaneous injection of either 60 mg/kg MCT (Sigma, catalog no. C2401-1G) or 0.9% saline for the sham group. […] Hemodynamic measurements were performed with animals from the 30 mg/kg group (but not the 10 mg/kg group) anesthetized with 60 mg/kg pentobarbital. Under anesthesia, each animal was intubated with a rodent ventilator (Harvard Apparatus, model 683) at 70 breaths/min of a rate and a tidal volume of 2.5 mL in supine position on a heating pad set at 37 °C. A small opening in the apex of the right ventricle was made using a 23G needle, then a Millar catheter (Millar Instruments, Inc. model SPR-320) was placed into the right ventricle through the opening in the apex, then into the pulmonary artery (PA) for the pressure measurement. A second catheter was inserted through the […] for the measurement of mean arterial pressure. After stabilization, heart rate, mean arterial pressure, and systolic RV pressure were calculated from 20 consecutive heart beats in each rat.
# The ventricles and lungs were excised and weighed. The ratio of RV weight to left ventricle plus septum (LV + S) was calculated as an index of right ventricular hypertrophy.
# As the collection and preservation of the tissues are very resource intensive, 5 animals were selected from each group for measurement of vessel thickness; this was sufficient to obtain clear statistical differences between groups. Paraffin sections of 4 μm thickness were obtained from the lower region of the right lung and stained with hematoxylin/eosin. Analysis of the medial wall thickness of the pulmonary arterioles was performed. In brief, the external diameter and medial wall thickness were measured in 20 muscular arteries (25–100 μm external diameters) per lung section. For each artery, the medial wall thickness was expressed as follows: % wall thickness = [(external diameter – internal diameter)/external diameter] × 100. Each vessel was measured twice, perpendicularly along the long axis and short axis, and averages of both measurements were used.
# [6] = system: human platelet; assay: Inhibition of ADP-induced human platelet aggregation; format: cell-based; conditions: aggregation induced by 2.5 μM ADP, mean of at least two determinations
# Experimental: Such aggregated and activated platelets produce vasoactive substances such as thromboxane and serotonin that may cause harmful vasoconstriction and vascular remodeling.[13] […] This secondary assay was carried out as previously described,[14] with aggregation induced by 2.5 μM ADP in the presence or absence of IP receptor agonists.
# [7] = target: IP (Homo sapiens, UniProt P43119); assay: Radioligand binding, human IP ([3H]-iloprost); parameters: expressed in transfected cells; host or cells: CHO-K1 (crude membranes); conditions: cloned human receptor; read-out: Ki IP ([3H]-iloprost)
# Experimental: as §1, §2
# [8] = target: CYP 2D6 (Homo sapiens, UniProt P10635); assay: Cytochrome P450 inhibition, CYP2D6; format: in vitro ADME
# [9] = target: EP4 (Homo sapiens, UniProt P35408); assay: Radioligand binding, EP4 ([3H]-PGE2); parameters: purchased MDS Pharma (Taiwan) and CEREP (France), contract assays; conditions: cloned human receptor; mean of two determinations
# Experimental: (§3) Additional (non-IP) receptor binding assays were carried out by MDS Pharma (Taiwan) and CEREP (France).
# [10] = system: 95 GPCR profile; assay: Wider binding screen (95 GPCR profile, MDS Pharma); conditions: 95 GPCR profile (MDS Pharma Inc.)
# From the text: [15] 95 GPCR profile (MDS Pharma Inc.).
# [11] = target: CYP 2C19 (Homo sapiens, UniProt P33261); assay: Cytochrome P450 inhibition, CYP2C19; format: in vitro ADME
# [12] = system: primary human pulmonary arterial smooth muscle cells; assay: HTRF cAMP assay in primary human pulmonary arterial smooth muscle cells; format: cell-based
# Experimental: Additional In Vitro Assays […]
# Compounds were also evaluated in HTRF cAMP assays using primary human pulmonary arterial smooth muscle cells (Cell Applications, Inc., #352Kq05a, or ThermoFisher/Gibco, #C0095C) using the same basic assay protocol outlined in the Experimental section. Cells were cultured as recommended by the suppliers, used at low passage and seeded into 384qwell assay plates at a density of 700q900 cell per well
# [13] = target: T1, EP1 (Homo sapiens, UniProt P34995); assay: Radioligand binding, EP1 ([3H]-PGE2); parameters: purchased MDS Pharma (Taiwan) and CEREP (France), contract assays; conditions: cloned human receptor; mean of two determinations
# T1 sequence (P34995 1-402): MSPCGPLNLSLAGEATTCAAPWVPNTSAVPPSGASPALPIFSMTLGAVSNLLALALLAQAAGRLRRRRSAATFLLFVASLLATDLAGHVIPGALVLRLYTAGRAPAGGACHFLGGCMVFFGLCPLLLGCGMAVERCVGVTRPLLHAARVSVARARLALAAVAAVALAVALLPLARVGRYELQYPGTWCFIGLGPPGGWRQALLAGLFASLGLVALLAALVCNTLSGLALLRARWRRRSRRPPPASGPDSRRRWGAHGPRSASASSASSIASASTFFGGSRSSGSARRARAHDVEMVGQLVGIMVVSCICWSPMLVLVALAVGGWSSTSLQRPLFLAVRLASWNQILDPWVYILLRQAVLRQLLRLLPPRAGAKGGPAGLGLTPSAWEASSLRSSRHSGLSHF
# Experimental: as §3
# Sequence of CYP 2C19 (P33261 whole entry): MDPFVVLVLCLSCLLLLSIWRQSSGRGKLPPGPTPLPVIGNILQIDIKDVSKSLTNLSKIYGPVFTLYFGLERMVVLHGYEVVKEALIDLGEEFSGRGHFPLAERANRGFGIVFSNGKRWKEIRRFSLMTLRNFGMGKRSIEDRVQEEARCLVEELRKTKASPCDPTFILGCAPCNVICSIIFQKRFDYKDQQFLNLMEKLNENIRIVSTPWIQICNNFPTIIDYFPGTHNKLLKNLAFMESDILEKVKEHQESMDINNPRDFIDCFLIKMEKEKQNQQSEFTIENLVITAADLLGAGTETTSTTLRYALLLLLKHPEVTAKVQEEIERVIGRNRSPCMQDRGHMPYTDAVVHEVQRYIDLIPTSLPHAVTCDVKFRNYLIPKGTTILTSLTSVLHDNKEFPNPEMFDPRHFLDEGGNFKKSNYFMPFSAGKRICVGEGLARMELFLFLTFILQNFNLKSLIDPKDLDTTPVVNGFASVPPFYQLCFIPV
# Sequence of CYP 3A4 (P08684 whole entry): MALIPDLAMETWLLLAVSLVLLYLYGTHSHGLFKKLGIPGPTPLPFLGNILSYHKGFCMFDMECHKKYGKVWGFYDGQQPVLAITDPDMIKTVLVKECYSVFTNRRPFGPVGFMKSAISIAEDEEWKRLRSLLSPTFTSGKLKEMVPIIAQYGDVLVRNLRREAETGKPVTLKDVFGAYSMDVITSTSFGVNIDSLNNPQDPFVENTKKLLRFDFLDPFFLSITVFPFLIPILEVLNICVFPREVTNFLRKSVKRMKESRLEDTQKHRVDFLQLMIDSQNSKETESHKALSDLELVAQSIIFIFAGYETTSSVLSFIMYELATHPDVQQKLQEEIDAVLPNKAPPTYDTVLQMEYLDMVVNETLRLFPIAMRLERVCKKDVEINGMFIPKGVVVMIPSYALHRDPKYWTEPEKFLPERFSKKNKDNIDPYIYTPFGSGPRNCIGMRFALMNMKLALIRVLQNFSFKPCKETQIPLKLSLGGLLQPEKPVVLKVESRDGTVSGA
# Sequence of hERG channel (Q12809 whole entry): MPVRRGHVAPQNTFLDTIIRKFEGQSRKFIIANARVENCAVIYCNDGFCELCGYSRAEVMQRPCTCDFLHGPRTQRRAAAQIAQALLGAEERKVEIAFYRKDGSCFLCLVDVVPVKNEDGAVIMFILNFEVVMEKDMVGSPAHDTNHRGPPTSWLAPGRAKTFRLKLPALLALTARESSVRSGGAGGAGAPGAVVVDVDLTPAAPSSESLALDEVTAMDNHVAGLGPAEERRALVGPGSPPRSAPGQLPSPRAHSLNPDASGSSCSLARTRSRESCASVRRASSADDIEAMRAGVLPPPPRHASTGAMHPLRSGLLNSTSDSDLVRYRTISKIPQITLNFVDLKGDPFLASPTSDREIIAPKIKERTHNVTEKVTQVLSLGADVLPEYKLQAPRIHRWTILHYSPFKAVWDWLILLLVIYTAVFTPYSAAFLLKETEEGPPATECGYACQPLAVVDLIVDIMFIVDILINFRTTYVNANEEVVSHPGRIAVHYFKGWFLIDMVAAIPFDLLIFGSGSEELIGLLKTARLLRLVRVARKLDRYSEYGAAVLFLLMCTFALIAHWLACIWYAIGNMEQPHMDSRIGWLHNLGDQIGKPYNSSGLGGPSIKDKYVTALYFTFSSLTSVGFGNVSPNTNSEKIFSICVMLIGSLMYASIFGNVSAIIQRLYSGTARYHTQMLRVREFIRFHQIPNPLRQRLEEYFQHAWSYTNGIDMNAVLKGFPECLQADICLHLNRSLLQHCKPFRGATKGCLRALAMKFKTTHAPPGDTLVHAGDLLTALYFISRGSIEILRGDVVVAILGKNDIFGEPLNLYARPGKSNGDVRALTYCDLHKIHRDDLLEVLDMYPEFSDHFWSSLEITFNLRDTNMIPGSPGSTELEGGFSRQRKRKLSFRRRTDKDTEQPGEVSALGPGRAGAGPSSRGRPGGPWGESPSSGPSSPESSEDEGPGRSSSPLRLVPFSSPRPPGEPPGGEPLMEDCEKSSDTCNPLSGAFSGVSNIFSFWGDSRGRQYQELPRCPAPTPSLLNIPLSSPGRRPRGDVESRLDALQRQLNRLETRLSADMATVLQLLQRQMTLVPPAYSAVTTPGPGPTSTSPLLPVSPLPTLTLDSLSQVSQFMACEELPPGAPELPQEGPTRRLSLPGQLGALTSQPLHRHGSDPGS
# Sequence of CYP 2D6 (P10635 whole entry): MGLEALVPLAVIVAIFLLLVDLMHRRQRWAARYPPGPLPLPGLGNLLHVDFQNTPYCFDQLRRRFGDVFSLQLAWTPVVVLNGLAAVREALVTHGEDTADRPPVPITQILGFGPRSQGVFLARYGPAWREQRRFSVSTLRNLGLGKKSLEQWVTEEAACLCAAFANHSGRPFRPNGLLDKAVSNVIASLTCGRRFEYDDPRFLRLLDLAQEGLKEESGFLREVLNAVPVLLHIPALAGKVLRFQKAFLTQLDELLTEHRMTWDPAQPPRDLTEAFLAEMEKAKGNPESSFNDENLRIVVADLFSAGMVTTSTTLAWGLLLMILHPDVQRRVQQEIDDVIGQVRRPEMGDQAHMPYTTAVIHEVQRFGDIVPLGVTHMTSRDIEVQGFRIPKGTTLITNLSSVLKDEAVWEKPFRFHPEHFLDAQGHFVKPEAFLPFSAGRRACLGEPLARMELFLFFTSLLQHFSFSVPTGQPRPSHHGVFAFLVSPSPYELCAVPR
# Sequence of EP4 (P35408 whole entry): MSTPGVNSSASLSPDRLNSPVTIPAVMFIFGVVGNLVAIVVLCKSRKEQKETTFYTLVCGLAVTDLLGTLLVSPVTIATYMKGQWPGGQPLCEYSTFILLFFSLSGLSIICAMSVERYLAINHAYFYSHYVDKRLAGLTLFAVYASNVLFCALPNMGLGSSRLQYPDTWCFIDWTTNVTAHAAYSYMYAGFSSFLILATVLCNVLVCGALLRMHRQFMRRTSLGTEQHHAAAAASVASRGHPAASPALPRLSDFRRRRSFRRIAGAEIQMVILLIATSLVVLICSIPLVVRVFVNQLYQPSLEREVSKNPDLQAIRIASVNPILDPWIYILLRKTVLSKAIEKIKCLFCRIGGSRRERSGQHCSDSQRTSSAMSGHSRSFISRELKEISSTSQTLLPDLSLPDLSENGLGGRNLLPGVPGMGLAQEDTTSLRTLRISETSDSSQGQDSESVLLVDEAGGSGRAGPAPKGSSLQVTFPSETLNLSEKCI
# Sequence of IP (P43119 whole entry): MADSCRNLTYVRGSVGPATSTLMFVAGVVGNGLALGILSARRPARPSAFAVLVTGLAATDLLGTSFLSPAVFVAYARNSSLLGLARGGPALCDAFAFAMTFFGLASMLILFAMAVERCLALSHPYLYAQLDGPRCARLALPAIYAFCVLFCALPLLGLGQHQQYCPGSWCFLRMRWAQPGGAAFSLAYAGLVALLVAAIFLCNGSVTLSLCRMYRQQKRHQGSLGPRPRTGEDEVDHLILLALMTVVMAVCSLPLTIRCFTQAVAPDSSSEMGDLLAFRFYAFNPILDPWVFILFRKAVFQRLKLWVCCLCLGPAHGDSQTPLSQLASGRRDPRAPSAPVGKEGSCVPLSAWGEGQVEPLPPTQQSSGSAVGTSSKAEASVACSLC
smiles,measurement,setting,value
"O=C(O)COC[C@H]1CC[C@H](COC(=O)N(c2ccccc2)c2cccc(F)c2)CC1 [5g, 2-(((1r,4r)-4-(((3-Fluorophenyl)(phenyl)carbamoyloxy)methyl)cyclohexyl)methoxy)acetic Acid]",half-life,[1],> 1 h
same,IC50,[2],> 30 µM
same,Ki,[3],0.0026 µM
same,IC50,[4],> 50 µM
same,inhibition of the MCT-induced increase in RV/(LV + S),[5],dose-dependent inhibition
same,IC50,[6],0.018 µM
same,Ki,[7],0.007 µM
same,IC50,[8],> 50 µM
same,Ki,[9],1.2 µM
same,off-target liabilities in a wider screen,[10],no additional off-target liabilities were observed
same,IC50,[11],> 50 µM
CC#CCC(C)[C@H](O)/C=C/[C@@H]1[C@H]2C/C(=C/CCCC(=O)O)C[C@H]2C[C@H]1O (some centres unmarked) [iloprost],Ki,[3],0.0016 µM
same,"Efficacy (% vs. Iloprost) [95% CI], primary human PASMC cAMP",[12],100%
same,EC50,"[12]; Homo sapiens, PASMC, n = 8, read-out: EC50 [95% CI], primary human PASMC cAMP",0.0029 µM
"O=C(O)COC[C@H]1CC[C@H](COC(=O)N(c2ccccc2)c2ccc(Cl)cc2)CC1 [5c, Sodium 2-(((1r,4r)-4-(((4-Chlorophenyl)(phenyl)carbamoyloxy)methyl)cyclohexyl)methoxy)acetate]",half-life,[1],> 1 h
same,IC50,[2],> 30 µM
same,IC50,[4],> 50 µM
same,Ki,[13],9.6 µM
same,effect on hypertrophy (RV/(LV + S)),[5]; 10 mg/kg oral twice daily,did not show a statistically significant effect
same,pulmonary vessel wall thickness,"[5]; 30 mg/kg oral twice daily, 5 animals",significantly reduce
same,MCT-induced increase in pulmonary arterial pressure (mPAP),"[5]; 30 mg/kg oral twice daily, subset of the test group (5 animals)",significantly reduce
same,inhibition of the MCT-induced increase in RV/(LV + S),[5],dose-dependent inhibition
same,"Efficacy (% vs. Iloprost) [95% CI], primary human PASMC cAMP",[12],"65 [55, 75] %"
same,IC50,[8],> 50 µM
same,off-target liabilities in a wider screen,[10],no additional off-target liabilities were observed
same,IC50,[11],> 50 µM
